This passage reports MIC, Time and Activity results from ChEMBL document CHEMBL4602605, “Fluoroquinolones structural and medicinal developments (2013-2018): Where are we now?” (Bioorg Med Chem, 2019).

Format in all cases: functional
The subject of assay [1] is Staphylococcus aureus. Description: Antimicrobial activity against methicillin-resistant Staphylococcus aureus clinical isolate incubated for 16 hrs by CLSI based agar dilution method.
The subject of assay [2] is Staphylococcus epidermidis. Description: Antimicrobial activity against methicillin-resistant Staphylococcus epidermidis clinical isolate incubated for 16 hrs by CLSI based agar dilution method.
Assay [3] concerns Staphylococcus aureus. Briefly: Antimicrobial activity against methicillin-susceptible Staphylococcus aureus clinical isolate incubated for 16 hrs by CLSI based agar dilution method.
Assay [4] deals with Klebsiella pneumoniae. Briefly: Antimicrobial activity against Klebsiella pneumoniae ATCC 29522 incubated for 16 hrs by CLSI-based agar dilution method. The note with it: ATCC 29522, 16 h. On the technique in general: In agar dilution, organisms are placed on agar that contains the substance at set levels.
In assay [5] the test system is Staphylococcus epidermidis. Briefly: Antimicrobial activity against methicillin-susceptible Staphylococcus epidermidis clinical isolate incubated for 16 hrs by CLSI based agar dilution method.
Assay [6] deals with Escherichia coli. Briefly: Antimicrobial activity against Escherichia coli ATCC 700603 incubated for 16 hrs by CLSI-based agar dilution method. As to conditions: ATCC 700603, 16 h.
For assay [7], the system named is Enterobacter cloacae. Description: Antimicrobial activity against Enterobacter cloacae ATCC 43560.
Assay [8] has as its system Escherichia coli. Briefly: Antimicrobial activity against ESBL non-producing Escherichia coli ATCC 25922.
Assay [9] concerns Pseudomonas aeruginosa. Description: Antimicrobial activity against Pseudomonas aeruginosa ATCC 27853.
For assay [10], the system named is Klebsiella pneumoniae. Briefly: Antimicrobial activity against ESBL-producing Klebsiella pneumoniae ATCC 700603.
The test system of assay [11] is Acinetobacter calcoaceticus. Briefly: Antimicrobial activity against Acinetobacter calcoaceticus ATCC 19606.
For assay [12], the system named is Bacillus subtilis. Briefly: Antibacterial activity against Bacillus subtilis NCDC 71 by single disk method.
In assay [13] the test system is Pseudomonas aeruginosa. Briefly: Antibacterial activity against Pseudomonas aeruginosa NCDC 105 by single disk method.
Assay [14] relates to Paenibacillus polymyxa. Description: Antibacterial activity against Paenibacillus polymyxa NCDC 64 by single disk method.
For assay [15], the system named is Metaphire posthuma. Briefly: Anthelmintic activity against Pheretima posthuma assessed as mean paralysing time at 200 mg/ml.
The subject of assay [16] is Escherichia coli. Description: Antibacterial activity against Escherichia coli NCDC 134 by single disk method.
In assay [17] the test system is Mus musculus. Description: Analgesic activity in Swiss albino mouse assessed as acetic acid-induced writhing number at 50 mg/kg pretreated for 30 mins followed by acetic acid challenge and measured after 5 to 15 mins (reference value: 30.8 +/- 0.37).
The subject of assay [18] is Staphylococcus aureus. Briefly: Antibacterial activity against Staphylococcus aureus NCDC 110 by single disk method.

In brackets after ≈: the same amount, converted by molar mass.

As usually defined, the MIC is the smallest concentration in the dilution series that meets the test's criterion for growth inhibition. Regarding `COc1c(N2CCCC(N(C)CC(O)Cn3cc([N+](=O)[O-])nc3Cl)C2)c(F)cc2c(=O)c(C(=O)O)cn(C3CC3)c12` (centres undefined), the MIC in assay [1] is 8 µg/mL (≈ 13.5 µM); in assay [2], 0.25 µg/mL (≈ 0.422 µM); in assay [3] it was 0.5 µg/mL (≈ 0.843 µM); in assay [4], above 32 µg/mL; in assay [5], 0.5 µg/mL (≈ 0.843 µM); in assay [6], 4 µg/mL (≈ 6.75 µM).
Regarding `COc1c(N2CCCC(N(C)C[C@@H](O)Cn3cc([N+](=O)[O-])nc3C)C2)c(F)cc2c(=O)c(C(=O)O)cn(C3CC3)c12` (some centres undefined), the MIC in assay [1] amounted to 32 µg/mL (≈ 55.9 µM); in [2], 0.25 µg/mL (≈ 0.437 µM); in [3], 1 µg/mL (≈ 1.75 µM); in [4] it was 16 µg/mL (≈ 27.9 µM); in assay [5] it was 1 µg/mL (≈ 1.75 µM); in assay [6], 8 µg/mL (≈ 14 µM).
Consider `COc1cc(OC)cc(-c2nn(CN3CCN(c4cc5c(cc4F)c(=O)c(C(=O)O)cn5[C@@H]4C[C@@H]4F)CC3)c(=S)n2-c2ccccc2)c1`, for which the MIC in [7] was 5.93 µM (≈ 4 µg/mL); in assay [8], at most 0.04 µM; in assay [9], 0.09 µM (≈ 0.0607 µg/mL); in assay [10], 1.48 µM (≈ 0.999 µg/mL); in assay [11] it was 1.48 µM (≈ 0.999 µg/mL).
Take `O=C(O)c1cn([C@@H]2C[C@@H]2F)c2cc(N3CCN(Cn4nc(-c5cccc(O)c5)n(-c5ccccc5)c4=S)CC3)c(F)cc2c1=O`: the MIC in [7] was at most 0.05 µM; in [8], at most 0.05 µM; in assay [9] it was 1.59 µM (≈ 1 µg/mL); in assay [10], 1.59 µM (≈ 1 µg/mL); in assay [11] it was 6.35 µM (≈ 4 µg/mL).
Regarding `COc1cc(-c2nn(CN3CCN(c4cc5c(cc4F)c(=O)c(C(=O)O)cn5[C@@H]4C[C@@H]4F)CC3)c(=S)n2-c2ccccc2)cc(OC)c1OC`, the MIC in assay [7] was at most 0.04 µM; in [8], at most 0.04 µM; in [9] it was 0.71 µM (≈ 0.5 µg/mL); in assay [10], 1.42 µM (≈ 1 µg/mL); in [11] it was 5.68 µM (≈ 4 µg/mL).
With `O=C(O)c1cn(C2CC2)c2cc(N3CCN(CC(O)Cn4cc([N+](=O)[O-])nc4Cl)CC3)c(F)cc2c1=O` (centres undefined), the MIC is 32 µg/mL (≈ 59.8 µM) in assay [1]; 2 µg/mL (≈ 3.74 µM) in [2]; 4 µg/mL (≈ 7.48 µM) in assay [3]; above 32 µg/mL in assay [4]; 2 µg/mL (≈ 3.74 µM) in assay [5]; 16 µg/mL (≈ 29.9 µM) in assay [6].
As to `COc1ccccc1-c1nn(CN2CCN(c3cc4c(cc3F)c(=O)c(C(=O)O)cn4[C@@H]3C[C@@H]3F)CC2)c(=S)n1-c1ccccc1`, the MIC in assay [7] was at most 0.05 µM; in [8], at most 0.05 µM; in assay [9] it was 3.1 µM (≈ 2 µg/mL); in assay [10] it was 0.78 µM (≈ 0.503 µg/mL); in assay [11] it was 6.21 µM (≈ 4 µg/mL).
In the case of `O=C(O)c1cn([C@@H]2C[C@@H]2F)c2cc(N3CCN(Cn4nc(-c5ccncc5)n(-c5ccccc5)c4=S)CC3)c(F)cc2c1=O`, the MIC in assay [7] is at most 0.05 µM; in assay [8], 0.1 µM (≈ 0.0616 µg/mL); in [9], 3.25 µM (≈ 2 µg/mL); in [10], 3.25 µM (≈ 2 µg/mL); in assay [11], 13 µM (≈ 8 µg/mL).
As to `COc1ccc(-c2nn(CN3CCN(c4cc5c(cc4F)c(=O)c(C(=O)O)cn5[C@@H]4C[C@@H]4F)CC3)c(=S)n2-c2ccccc2)cc1OC`, the MIC in [7] is at most 0.04 µM; in assay [8], at most 0.04 µM; in assay [9] it was 1.48 µM (≈ 0.999 µg/mL); in assay [10] it was 2.97 µM (≈ 2 µg/mL); in assay [11], 23.7 µM (≈ 16 µg/mL).
Regarding `Cc1cc(C)cc(-c2nn(CN3CCN(c4cc5c(cc4F)c(=O)c(C(=O)O)cn5[C@@H]4C[C@@H]4F)CC3)c(=S)n2Cc2ccccc2)c1`, the MIC in assay [7] was at most 0.04 µM; in [8], at most 0.04 µM; in assay [9], 1.45 µM (≈ 0.952 µg/mL); in assay [10] it was 1.45 µM (≈ 0.952 µg/mL); in assay [11], 5.81 µM (≈ 3.82 µg/mL).
Take `O=C(O)c1cn([C@@H]2C[C@@H]2F)c2cc(N3CCN(Cn4nc(-c5ccccc5O)n(-c5ccccc5)c4=S)CC3)c(F)cc2c1=O`: the minimal inhibitory concentration (MIC) was at most 0.05 µM in assay [7]; 0.1 µM (≈ 0.0631 µg/mL) in assay [8]; 1.59 µM (≈ 1 µg/mL) in assay [9]; 1.59 µM (≈ 1 µg/mL) in assay [10]; 12.7 µM (≈ 8 µg/mL) in assay [11].
For `O=C(O)c1cn([C@@H]2C[C@@H]2F)c2cc(N3CCN(Cn4nc(-c5ccccn5)n(Cc5ccccc5)c4=S)CC3)c(F)cc2c1=O`, the MIC in assay [7] is 0.79 µM (≈ 0.497 µg/mL); in assay [8], at most 0.05 µM; in [9], 0.79 µM (≈ 0.497 µg/mL); in assay [10], 0.79 µM (≈ 0.497 µg/mL); in assay [11], at most 0.05 µM.
Consider `COc1cccc(-c2nn(CN3CCN(c4cc5c(cc4F)c(=O)c(C(=O)O)cn5[C@@H]4C[C@@H]4F)CC3)c(=S)n2-c2ccccc2)c1`, for which the MIC was at most 0.05 µM in assay [7]; at most 0.05 µM in [8]; 6.21 µM (≈ 4 µg/mL) in [9]; 1.55 µM (≈ 0.999 µg/mL) in assay [10]; 12.4 µM (≈ 8.01 µg/mL) in [11].
`O=C(O)c1cn([C@@H]2C[C@@H]2F)c2cc(N3CCN(Cn4nc(-c5ccncc5)n(Cc5ccccc5)c4=S)CC3)c(F)cc2c1=O`: the MIC was at most 0.05 µM in assay [7]; at most 0.05 µM in assay [8]; 0.79 µM (≈ 0.497 µg/mL) in assay [9]; 1.59 µM (≈ 1 µg/mL) in assay [10]; 12.7 µM (≈ 8 µg/mL) in assay [11].
Take `O=C(O)c1cn([C@@H]2C[C@@H]2F)c2cc(N3CCN(Cn4nc(-c5cc6ccccc6cn5)n(Cc5ccccc5)c4=S)CC3)c(F)cc2c1=O`: the MIC in [7] was at most 0.04 µM; in [8], at most 0.04 µM; in assay [9] it was 1.47 µM (≈ 0.999 µg/mL); in [10], 1.47 µM (≈ 0.999 µg/mL); in [11], 11.8 µM (≈ 8.02 µg/mL).
With `CCn1cc(C(=O)O)c(=O)c2cc(F)c(N3CCN(CC(O)Cn4cc([N+](=O)[O-])nc4Cl)CC3)c(OC)c21` (centres undefined), the MIC was above 32 µg/mL in assay [2]; above 32 µg/mL in assay [3]; above 32 µg/mL in assay [4]; 32 µg/mL (≈ 57.9 µM) in assay [5]; above 32 µg/mL in assay [6].
In the case of `O=C(CN1CCN(c2cc3c(cc2F)c(=O)c(C(=O)O)cn3C2CC2)CC1)Nc1nc2ccc(F)cc2s1`, the MIC turned out to be 40 µg/mL (≈ 74.1 µM) in assay [12]; 60 µg/mL (≈ 111 µM) in assay [13]; 125 µg/mL (≈ 232 µM) in assay [14]; 80 µg/mL (≈ 148 µM) in assay [16]; 35 µg/mL (≈ 64.9 µM) in assay [18]. The Time in assay [15] turned out to be 27.8 min. Besides, the Activity in assay [17] stood at 17.
In the case of `O=C(O)c1cn([C@@H]2C[C@@H]2F)c2cc(N3CCN(Cn4nc(-c5cccnc5)n(Cc5ccccc5)c4=S)CC3)c(F)cc2c1=O`, the MIC in [7] is at most 0.05 µM; in assay [8] it was at most 0.05 µM; in assay [9], 1.59 µM (≈ 1 µg/mL); in [10] it was 0.4 µM (≈ 0.252 µg/mL); in assay [11] it was 6.36 µM (≈ 4 µg/mL).
In the case of `O=C(O)c1cn([C@@H]2C[C@@H]2F)c2cc(N3CCN(Cn4nc(-c5cccnc5)n(-c5ccccc5)c4=S)CC3)c(F)cc2c1=O`, the MIC in assay [7] was at most 0.05 µM; in assay [8], at most 0.05 µM; in assay [9], 1.63 µM (≈ 1 µg/mL); in assay [10] it was 1.63 µM (≈ 1 µg/mL); in [11], 13 µM (≈ 8 µg/mL).
For `COc1c(N2CCN(CC(=O)Nc3nc4c(Cl)cccc4s3)C(C)C2)c(F)cc2c(=O)c(C(=O)O)cn(C3CC3)c12` (centres undefined), the MIC came out at 75 µg/mL (≈ 125 µM) in assay [12]; 20 µg/mL (≈ 33.3 µM) in assay [13]; 25 µg/mL (≈ 41.7 µM) in [14]; 60 µg/mL (≈ 100 µM) in assay [16]; 4 µg/mL (≈ 6.67 µM) in [18]. The Time in assay [15] was determined as 24.6 min. The Activity in assay [17] amounted to 19.2.
Consider `CCn1cc(C(=O)O)c(=O)c2cc(F)c(N3CCN(CC(=O)Nc4nc5ccc(Cl)cc5s4)CC3)cc21`, for which the MIC in assay [12] is 2 µg/mL (≈ 3.68 µM); in [13], 10 µg/mL (≈ 18.4 µM); in assay [14] it was 25 µg/mL (≈ 46 µM); in assay [16], 50 µg/mL (≈ 91.9 µM); in assay [18], 15 µg/mL (≈ 27.6 µM). For the same compound, the Time in assay [15] was found to be 23.6 min. In [17], the Activity came out at 15.2.
`O=C(O)c1cn([C@@H]2C[C@@H]2F)c2cc(N3CCN(Cn4nc(-c5ccccn5)n(-c5ccccc5)c4=S)CC3)c(F)cc2c1=O`: the MIC is at most 0.05 µM in assay [7]; at most 0.05 µM in assay [8]; 1.63 µM (≈ 1 µg/mL) in assay [9]; 1.63 µM (≈ 1 µg/mL) in assay [10]; 6.5 µM (≈ 4 µg/mL) in assay [11].
